Consider three compounds from patent US6583265B1, “Cyclosporins” (C-Chem AG, priority 1998, dated 2003).

Peptide text beside a SMILES is read from it.

Assay [1] addresses recombinant human cyclophilin 18 (Homo sapiens, UniProt P62937). Nature of the assay: Test for inhibition of cyclophilin (chymotrypsin-coupled hydrolysis of Succ-Ala-Phe-Pro-Phe-4-nitroanilide). Format: biochemical. The conditions noted are these: recombinant human cyclophilin 18, 10 °C, HEPES buffer, 5 minutes preincubation, substrate 50 μM. The method, then:
The test described by G. Fischer et al., Biomed. Biochim. Acta, Vol. 43, 1101-1111 (1984) was used. Specifically, 5 μL of a 1 μM solution of recombinant human cyclophilin 18 was dissolved, at 10,0±0.3° C. in 1250 μL HEPES buffer; α-chymotrypsin was added to give a final concentration of 30 μM. […] After 5 minutes preincubation, Succ-Ala-Phe-Pro-Phe-4-nitroanilide (SEQ ID No. 1) was added to give a final concentration of 50 μM. The hydrolysis of the substrate was measured spectrophotometrically at […].

Assay [2] has as its system T. gondii tachyzoites, strain RH. Type of assay: cell-based, Toxoplasma gondii. The conditions noted are these: 72 h. How it is done: Using microliter plates, T. gondii tachyzoites, strain RH were co-incubated with fibroblasts (MCR5, Bio-Merieux) for 72 hrs in the presence and absence of test compounds T. gondii was quantified using an ELISA. The activities of the test compounds are as follows: […]

A further assay deals with cyclophilin (Homo sapiens, UniProt P62937). As to the kind of experiment: Test for cyclophilin binding (Fliri). The settings on record: ratio to cyclosporin A. An excerpt:
To measure the affinity and inhibition of test compounds for cyclophilin, the test described by H. Fliri in “Antibiotics and Antiviral compounds”, 1993, Verlag Chemie, K.Krohn, H. A. Kirst, and H. Maag, eds., p 229-240 was used.

Assay [3] in a line: Antiinflammatory activity, adjuvent arthritis test (Pearson). Format: in vivo. The settings on record: oral, solutions in olive oil and tween 80. The method, then: The antiinflammatory activity of test compounds was determined by the adjuvent arthritis test described by Pearson, “Arthr. Rheum”, 1959, Vol. 2., 440. Test compounds were administered orally as solutions in olive oil and tween 80.

Sequence of recombinant human cyclophilin 18 (P62937 whole entry): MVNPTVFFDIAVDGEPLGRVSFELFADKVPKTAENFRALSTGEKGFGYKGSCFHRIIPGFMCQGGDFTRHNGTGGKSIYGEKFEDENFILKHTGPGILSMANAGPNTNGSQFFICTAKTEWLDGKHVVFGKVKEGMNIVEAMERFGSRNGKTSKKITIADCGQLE
Sequence of cyclophilin (P62937 whole entry): as above

Consider `C=CCO[C@@H]1C(=O)N(C)[C@@H](CC(C)C)C(=O)N[C@@H](C(C)C)C(=O)N(C)[C@@H](CC(C)C)C(=O)N[C@@H](C)C(=O)N[C@H](C)C(=O)N(C)[C@@H](CC(C)C)C(=O)N(C)[C@@H](CC(C)C)C(=O)N(C)[C@@H](C(C)C)C(=O)N(C)[C@@H]([C@H](O)[C@H](C)C/C=C/C)C(=O)N[C@@H](CC)C(=O)N1C` [Example 18, [D-Sar-(allyloxy)^3]-cyclosporin] (HELM PEPTIDE1{[C/C=C/C[C@@H](C)[C@@H](O)[C@@H](C(=O)[*:2])N(C)[*:1]].[Abu].[C=CCO[C@H](C(=O)[*:2])N(C)[*:1]].[meL].V.[meL].A.[dA].[meL].[meL].[meV]}$PEPTIDE1,PEPTIDE1,1:R1-11:R2$$$V2.0), for which, in assay [1], the IC50 – broadly, the concentration that gives 50% inhibition – amounted to 0.0102 ± 0.00221 µM.

On to `C/C=C/C[C@@H](C)[C@@H](O)[C@H]1C(=O)N[C@@H](CC)C(=O)N(C)C(OCC)C(=O)N(C)[C@@H](CC(C)C)C(=O)N[C@@H](C(C)C)C(=O)N(C)[C@@H](CC(C)C)C(=O)N[C@@H](C)C(=O)N[C@H](C)C(=O)N(C)[C@@H](CC(C)C)C(=O)N(C)[C@@H](CC(C)C)C(=O)N(C)[C@@H](C(C)C)C(=O)N1C` (some centres unmarked) [Example 15, 3-Ethoxycyclosporin] (HELM PEPTIDE1{[C/C=C/C[C@@H](C)[C@@H](O)[C@@H](C(=O)[*:2])N(C)[*:1]].[Abu].[CCOC(C(=O)[*:2])N(C)[*:1]].[meL].V.[meL].A.[dA].[meL].[meL].[meV]}$PEPTIDE1,PEPTIDE1,1:R1-11:R2$$$V2.0), for which, in assay [2], the “Activity against T. gondii (IC50)” value worked out at 0.6 µg/mL. For the same compound, on cyclophilin, the Relative IC50, i.e. IC50 (cyclosporin A)/IC50 (test compound) stood at 2. In assay [3], the “ED50, dose effective in reducing the joint swelling by 50%” value turned out to be 15 mg/kg.

For the compound `C/C=C/C[C@@H](C)[C@@H](O)[C@H]1C(=O)N[C@@H](CC)C(=O)N(C)[C@H](OC(C)(C)C)C(=O)N(C)[C@@H](CC(C)C)C(=O)N[C@@H](C(C)C)C(=O)N(C)[C@@H](CC(C)C)C(=O)N[C@@H](C)C(=O)N[C@H](C)C(=O)N(C)[C@@H](CC(C)C)C(=O)N(C)[C@@H](CC(C)C)C(=O)N(C)[C@@H](C(C)C)C(=O)N1C` [Example 17, [D-Sar-(tert.-butoxy)^3]-cyclosporin] (HELM PEPTIDE1{[C/C=C/C[C@@H](C)[C@@H](O)[C@@H](C(=O)[*:2])N(C)[*:1]].[Abu].[CN([C@H](OC(C)(C)C)C(=O)[*:2])[*:1]].[meL].V.[meL].A.[dA].[meL].[meL].[meV]}$PEPTIDE1,PEPTIDE1,1:R1-11:R2$$$V2.0), in assay [1], the IC50 is 0.0189 ± 0.00103 µM.
